Columns and labels:
[1] = system: unc-25 and unc-49 loss of function mutant C. elegans; settings: unc-25 and unc-49 mutants; concentration not given; cited from earlier work
C. elegans (N2 worms) [2] = settings: effect of PTZ application; concentration not given; cited from earlier work
C. elegans (N2 worms) [3] = experiment: C. elegans electroshock seizure assay (recovery time; with or without PTZ); assay type: in vivo; settings: 3 mM (3000 μM); with PTZ; control AED
Text: FIG. 2 is a graph showing recovery time (seconds) for N2 worms (vertical axis) in the presence of M9 or pentylenetetrazol (PTZ) (first two bars). In other experiments, PTZ is combined with either an RVM or sodium valproate.
FIG. 3 left is the structure of RVM-3, and FIG. 3 right is a graph showing recovery time (seconds) for N2 worms (vertical axis) in the presence of M9 or PTZ (first two bars). In other experiments, PTZ is combined with RVM-3 at varying concentrations or sodium valproate.
The structures of these RVMs are comprised of an all-carbon bridged bicyclic scaffold that is fully saturated, a motif that is without precedent in the AED literature. […] It is expected that a pharmacological intervention based on RVMs will provide relief from epileptic events at low dosages.
The C. elegans seizure assay includes placing L4 C. elegans into a small tube that is capped on both sides by copper wires. A shock of 47 V for three seconds is then administered. […] Recovery is recorded when the animals present with coordinated three sinusoidal movements, which is then characterized as normal swimming activity. […]
This C. elegans assay offers a new model for the evaluation of electroconvulsive seizures (FIG. 4). […] Recovery is recorded when the animals present with three sinusoidal movements, which is then characterized as normal swimming activity. […]

Structure (SMILES) | sensitivity to electroshock when mutants are treated with antiepileptic drugs [1] | seizure-like phenotypes seen in C. elegans (C. elegans (N2 worms) [2]) | sensitivity to electroshock when mutants are additionally treated with PTZ [1] | restoration of recovery time (C. elegans (N2 worms) [3])
CCOC(=O)Nc1ccc(NCc2ccc(F)cc2)cc1N [Retigabine] | increased sensitivity is rescued | – | – | –
C1CCc2nnnn2CC1 [PTZ, Pentylenetetrazole] | – | enhances the seizure-like phenotypes | sensitivity to electroshock is increased | –
CC[C@@H](C(N)=O)N1CCCC1=O [Keppra, levetiracetam] | increased sensitivity is rescued | – | – | –
CCCC(CCC)C(=O)[O-].[Na+] [Sodium valproate, sodium valproate] | increased sensitivity is rescued | – | – | relatively modest restoration of recovery time
